The subject of assay [1] is myosin light chain 2 (MLC2) (Ser19). Type of assay: cell-based, human. Here is the method:
Cells were lysed in lithium dodecyl sulfate (LDS) sample buffer (Invitrogen, Carlsbad, CA), and lysed using a sonic dismembrator model 100 (Fisher Scientific, Hampton, NH). Cell extracts were subjected to LDS polyacrylamide gel electrophoresis and transferred to polyvinylidene difluoride membranes. After blocking with 5% nonfat dry milk in 0.1% Tween 20/TBS, membranes were incubated with the primary antibody. […] The following non phospho-specific antibodies were used: Beta-Actin and PAK1/2/3 (Cell Signaling Technology, Beverly, MA). Secondary antibodies conjugated to horseradish peroxidase were either anti-rabbit (Biorad, Hercules, CA), or anti-mouse (Cell Signaling Technology, Beverly, MA). Bands were visualized by enhanced chemiluminescence using SuperSignal® West Pico Chemiluminescent Substrate (Thermo Scientific, Rockford, IL) on a VersaDoc Imager (BioRad, Hercules, CA).

In assay [2] the test system is RhoA. The conditions noted are these: microtubule depolymerizing reagent; ref [24], [25]; cited from earlier work. From the text: (§1) It has been shown that Rho GTPases are regulated by microtubule dynamics. […] One of the major intracellular signaling molecules involved in the regulation of tubulin function is p21- activated kinase 1 (PAK), which interacts with a variety of other proteins ...

In assay [3] the test system is T cells. The conditions noted are these: ref [26]; cited from earlier work.
Text: as §1

Assay [4] relates to HEK293-NK1R cells. The experiment in a line: SP-induced membrane blebbing in HEK293-NK1R cells (phase-contrast / DIC / confocal microscopy). The class given is cell-based. The settings on record: for effect of colchicine on SP-induced blebbing: colchicine pretreatment.

“Also recorded” adds a separate entry of the source.

With C3 transferase, the “effect of C3 transferase on MLC phosphorylation” value in assay [1] was “decrease in MLC phosphorylation”.

As for `COC(=O)Nc1nc2ccc(C(=O)c3cccs3)cc2[nH]1` [Nocodazole], in assay [2], the “RhoA activation by nocodazole” value was “induces RhoA activation”. Further, the “effect of nocodazole on T cell migratory phenotype” value in assay [3] was “converts T cells from the classical lamellipodial/uropod migratory phenotype to a blebbing migratory phenotype”. As for `Oc1ccc2ccccc2c1SSc1c(O)ccc2ccccc12` [IPA3, 1, 1′-Dithiodi-2-naphthtol], the “effect of IPA3 on SP-induced blebbing” value in assay [4] (IPA3 pretreatment, phase-contrast) is recorded as “not in HEK293 cells; also recorded: no effect on HEK293- NK1R cell's ability to bleb”. Consider `COc1cc2c(c(OC)c1OC)-c1ccc(OC)c(=O)cc1[C@@H](NC(C)=O)CC2` [colchicine], for which the “cell morphology after colchicine” value in assay [4] (colchicine) was “causing the cells to appear less adherent and to round up”. The “effect of colchicine on SP-induced blebbing” value is on record as “not able to block the SP-induced blebbing” in assay [4] and “unable to block bleb formation” in assay [4] (listed as Colchicine).

(Values after publication PMC3179504 (PLoS ONE, 2011).)
